Reference: PubChem BioAssay AID1918955 (Molecular Pharmacology Branch, DTP, NCI, 2023)

Tested on: NCI/ADR-RES complex spheroid viability
Assay: Anticancer human tumor NCI/ADR-RES cell line growth inhibition;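 further: spheroids exposed to compounds for 7 days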;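 on viability, T/C: 100% = DMSO vehicle treated spheroids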
Conditions: for IC50: curve of first compound; for viability, T/C: stronger effect = lower value; active means viability on the fitted dose curve at most 10% of control; inactive means the rest
In short: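 Complex spheroids of tumor cells with HUVEC and human MSCs, exposed to iadademstat combined with other agents. Each agent tested in half-log steps from near clinical Cmax (else 10 microM top), DMSO ≤0.25%.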

Nc1ccccc1NC(=O)c1ccc(CNC(=O)OCc2cccnc2)cc1 + NC1CCC(NC2CC2c2ccccc2)CC1
inactive: viability, T/C (second compound 0.1 µM, first compound 0.00949 µM) 106% | viability, T/C (second compound 0.1 µM, first compound 0.03 µM) 96.8% | viability, T/C (second compound 0.1 µM, first compound 0.0949 µM) 93.4% | viability, T/C (second compound 0.1 µM, first compound 0.3 µM) 80.8% | viability, T/C (second compound 0.1 µM, first compound 0.949 µM) 52.6% | viability, T/C (second compound 0.1 µM, first compound 3 µM) 32.7% | viability, T/C (second compound 0.316 µM, first compound 0.00949 µM) 110% | viability, T/C (second compound 0.316 µM, first compound 0.03 µM) 98.6% | viability, T/C (second compound 0.316 µM, first compound 0.0949 µM) 96.8% | viability, T/C (second compound 0.316 µM, first compound 0.3 µM) 93.8% | viability, T/C (second compound 0.316 µM, first compound 0.949 µM) 57.9% | viability, T/C (second compound 0.316 µM, first compound 3 µM) 30.5% | viability, T/C (second compound 1 µM, first compound 0.00949 µM) 106% | viability, T/C (second compound 1 µM, first compound 0.03 µM) 100% | viability, T/C (second compound 1 µM, first compound 0.0949 µM) 97.6% | viability, T/C (second compound 1 µM, first compound 0.3 µM) 76.5% | viability, T/C (second compound 1 µM, first compound 0.949 µM) 56.8% | viability, T/C (second compound 1 µM, first compound 3 µM) 32.9% | viability, T/C (second compound 3.16 µM, first compound 0.00949 µM) 102% | viability, T/C (second compound 3.16 µM, first compound 0.03 µM) 100% | viability, T/C (second compound 3.16 µM, first compound 0.0949 µM) 93% | viability, T/C (second compound 3.16 µM, first compound 0.3 µM) 79.6% | viability, T/C (second compound 3.16 µM, first compound 0.949 µM) 49.8% | viability, T/C (second compound 3.16 µM, first compound 3 µM) 30.7% | viability, T/C (second compound 10 µM, first compound 0.00949 µM) 95.1% | viability, T/C (second compound 10 µM, first compound 0.03 µM) 79.8% | viability, T/C (second compound 10 µM, first compound 0.0949 µM) 72.7% | viability, T/C (second compound 10 µM, first compound 0.3 µM) 65.5% | viability, T/C (second compound 10 µM, first compound 0.949 µM) 42.4% | viability, T/C (second compound 10 µM, first compound 3 µM) 22.2%
1340 nM: IC50 (second compound 0.316 µM)
1170 nM: IC50 (second compound 0.1 µM)
622 nM: IC50 (second compound 10 µM)
1270 nM: IC50 (second compound 1 µM)
979 nM: IC50 (second compound 3.16 µM)

CC(C)c1c(-c2ccccc2)nc2c(C#N)c[nH]n2c1=O + NC1CC1c1ccc(-c2cccc(O)c2)cc1
inactive: viability, T/C (second compound 0.1 µM, first compound 0.0316 µM) 104% | viability, T/C (second compound 0.1 µM, first compound 0.1 µM) 107% | viability, T/C (second compound 0.1 µM, first compound 0.316 µM) 102% | viability, T/C (second compound 0.1 µM, first compound 1 µM) 103% | viability, T/C (second compound 0.1 µM, first compound 3.16 µM) 108% | viability, T/C (second compound 0.1 µM, first compound 10 µM) 95.3% | viability, T/C (second compound 0.316 µM, first compound 0.0316 µM) 113% | viability, T/C (second compound 0.316 µM, first compound 0.1 µM) 106% | viability, T/C (second compound 0.316 µM, first compound 0.316 µM) 104% | viability, T/C (second compound 0.316 µM, first compound 1 µM) 102% | viability, T/C (second compound 0.316 µM, first compound 3.16 µM) 109% | viability, T/C (second compound 0.316 µM, first compound 10 µM) 98.9% | viability, T/C (second compound 1 µM, first compound 0.0316 µM) 109% | viability, T/C (second compound 1 µM, first compound 0.1 µM) 101% | viability, T/C (second compound 1 µM, first compound 0.316 µM) 106% | viability, T/C (second compound 1 µM, first compound 1 µM) 106% | viability, T/C (second compound 1 µM, first compound 3.16 µM) 100% | viability, T/C (second compound 1 µM, first compound 10 µM) 96.5% | viability, T/C (second compound 3.16 µM, first compound 0.0316 µM) 106% | viability, T/C (second compound 3.16 µM, first compound 0.1 µM) 108% | viability, T/C (second compound 3.16 µM, first compound 0.316 µM) 106% | viability, T/C (second compound 3.16 µM, first compound 1 µM) 107% | viability, T/C (second compound 3.16 µM, first compound 3.16 µM) 97.6% | viability, T/C (second compound 3.16 µM, first compound 10 µM) 98.9% | viability, T/C (second compound 10 µM, first compound 0.0316 µM) 87% | viability, T/C (second compound 10 µM, first compound 0.1 µM) 96.3% | viability, T/C (second compound 10 µM, first compound 0.316 µM) 91.7% | viability, T/C (second compound 10 µM, first compound 1 µM) 91.2% | viability, T/C (second compound 10 µM, first compound 3.16 µM) 89.2% | viability, T/C (second compound 10 µM, first compound 10 µM) 84.2%
> 10000 nM: IC50 (second compound 0.1 µM) | IC50 (second compound 0.316 µM) | IC50 (second compound 1 µM) | IC50 (second compound 3.16 µM) | IC50 (second compound 10 µM)
